From ChEMBL document CHEMBL3632507, “Discovery of novel VEGFR-2 inhibitors. Part 5: Exploration of diverse hinge-binding fragments via core-refining approach” (Eur J Med Chem, 2015)

Legend:
[1] = test system: A549; assay: Antiproliferative activity against human A549 cells assessed as cell growth inhibition after 48 hrs by MTT assay; details: A549, 48 h
[2] = Antiproliferative activity against human SMMC7721 cells assessed as cell growth inhibition after 48 hrs by MTT assay; details: SMMC-7721, 48 h
[3] = biological target: Vascular endothelial growth factor receptor 2 (Homo sapiens, UniProt P35968); assay: Inhibition of VEGFR-2 (unknown origin) after 1 hr by ADP-Glo assay
Chain of Vascular endothelial growth factor receptor 2 (P35968 whole entry): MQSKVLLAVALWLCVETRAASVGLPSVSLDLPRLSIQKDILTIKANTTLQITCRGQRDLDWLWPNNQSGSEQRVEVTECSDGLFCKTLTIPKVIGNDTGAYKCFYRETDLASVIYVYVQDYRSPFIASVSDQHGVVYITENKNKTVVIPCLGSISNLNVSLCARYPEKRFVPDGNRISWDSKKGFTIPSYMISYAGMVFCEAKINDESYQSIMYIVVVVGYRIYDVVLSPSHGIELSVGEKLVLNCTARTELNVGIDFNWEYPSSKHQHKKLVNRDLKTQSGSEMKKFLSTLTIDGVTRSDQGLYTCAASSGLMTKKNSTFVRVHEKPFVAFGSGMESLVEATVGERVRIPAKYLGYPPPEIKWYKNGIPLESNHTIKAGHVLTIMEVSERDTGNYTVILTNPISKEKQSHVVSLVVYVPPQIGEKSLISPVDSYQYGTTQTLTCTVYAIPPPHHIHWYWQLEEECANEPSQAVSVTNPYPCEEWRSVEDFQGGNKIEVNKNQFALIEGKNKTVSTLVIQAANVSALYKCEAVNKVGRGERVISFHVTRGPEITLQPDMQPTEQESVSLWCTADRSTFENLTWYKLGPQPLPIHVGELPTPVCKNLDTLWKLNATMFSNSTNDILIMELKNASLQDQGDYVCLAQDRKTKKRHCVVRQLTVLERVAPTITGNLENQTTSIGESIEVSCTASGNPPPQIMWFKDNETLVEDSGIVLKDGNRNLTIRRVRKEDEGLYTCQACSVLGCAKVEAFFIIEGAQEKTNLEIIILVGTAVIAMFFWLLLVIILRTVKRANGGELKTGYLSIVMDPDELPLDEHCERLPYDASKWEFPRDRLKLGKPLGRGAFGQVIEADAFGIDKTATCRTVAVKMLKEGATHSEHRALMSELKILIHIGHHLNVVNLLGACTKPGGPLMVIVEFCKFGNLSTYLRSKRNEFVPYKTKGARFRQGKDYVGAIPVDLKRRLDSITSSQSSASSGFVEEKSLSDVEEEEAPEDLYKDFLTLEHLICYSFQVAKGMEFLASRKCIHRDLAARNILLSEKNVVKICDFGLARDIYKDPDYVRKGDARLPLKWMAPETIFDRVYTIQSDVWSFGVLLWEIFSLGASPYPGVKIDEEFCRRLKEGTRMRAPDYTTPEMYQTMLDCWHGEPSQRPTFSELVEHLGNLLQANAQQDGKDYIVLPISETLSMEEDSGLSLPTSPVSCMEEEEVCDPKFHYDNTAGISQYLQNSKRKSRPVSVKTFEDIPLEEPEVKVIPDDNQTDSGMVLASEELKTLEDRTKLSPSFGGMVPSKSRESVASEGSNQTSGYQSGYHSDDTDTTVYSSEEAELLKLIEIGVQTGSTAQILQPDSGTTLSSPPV

## COc1ccc(C(=O)OCCN(C)C)cc1NC(=O)Nc1cc(-c2cccnc2)cc(C(F)(F)F)c1
[1]
  IC50: 2.49 µM
[2]
  IC50: 0.86 µM

## COc1ccc(C(=O)OCCN(C)C)cc1NC(=O)Nc1cc(-c2cncnc2)cc(C(F)(F)F)c1
[3]
  IC50: > 500 µM
[1]
  IC50: 1.66 µM
[2]
  IC50: 1.39 µM

## COc1ccc(C(=O)OCCN(C)C)cc1NC(=O)Nc1cc(-c2cccnc2)ccc1OC(F)(F)F
[1]
  IC50: 1.01 µM
[2]
  IC50: 1.38 µM

## COc1ccc(C(=O)OCCN(C)C)cc1NC(=O)Nc1cc(-c2ccc3[nH]ccc3c2)ccc1OC(F)(F)F
[1]
  IC50: 0.95 µM
[2]
  IC50: 1.76 µM

## COc1ccc(-c2ccc(OC(F)(F)F)c(NC(=O)Nc3cc(C(=O)OCCN(C)C)ccc3OC)c2)cn1
[1]
  IC50: 0.91 µM
[2]
  IC50: 2.01 µM

## COc1ccc(C(=O)OCCN(C)C)cc1NC(=O)Nc1cc(-c2cncnc2)ccc1OC(F)(F)F
[1]
  IC50: 14.7 µM
[2]
  IC50: 6.15 µM

## CCN(CC)CCOC(=O)c1ccc(OC)c(NC(=O)Nc2cc(-c3ccc4[nH]ccc4c3)ccc2OC(F)(F)F)c1
[1]
  IC50: 0.99 µM
[2]
  IC50: 0.57 µM

## CCN(CC)CCOC(=O)c1ccc(OC)c(NC(=O)Nc2cc(-c3ccc(OC)nc3)ccc2OC(F)(F)F)c1
[1]
  IC50: 1.73 µM
[2]
  IC50: 0.64 µM

## CCN(CC)CCOC(=O)c1ccc(OC)c(NC(=O)Nc2cc(-c3cncnc3)ccc2OC(F)(F)F)c1
[3]
  IC50: > 500 µM
[1]
  IC50: > 500 µM
[2]
  IC50: 3.43 µM

## COc1ccc(C(=O)OCCN(C(C)C)C(C)C)cc1NC(=O)Nc1cc(-c2cccnc2)cc(C(F)(F)F)c1
[1]
  IC50: 1.91 µM
[2]
  IC50: 0.73 µM

## COc1ccc(C(=O)OCCN(C(C)C)C(C)C)cc1NC(=O)Nc1cc(-c2ccc3[nH]ccc3c2)cc(C(F)(F)F)c1
[3]
  IC50: > 500 µM
[1]
  IC50: 1.57 µM
[2]
  IC50: 0.41 µM

## COc1ccc(C(=O)OCCN(C(C)C)C(C)C)cc1NC(=O)Nc1cc(-c2ccc3[nH]ccc3c2)ccc1OC(F)(F)F
[3]
  IC50: > 500 µM
[1]
  IC50: 2.06 µM
[2]
  IC50: 0.36 µM

## COc1ccc(C(=O)OCCN(C(C)C)C(C)C)cc1NC(=O)Nc1cc(-c2cncnc2)ccc1OC(F)(F)F
[3]
  IC50: > 500 µM
[1]
  IC50: 3.97 µM
[2]
  IC50: 0.92 µM

## COc1ccc(C(=O)OCCN(C(C)C)C(C)C)cc1NC(=O)Nc1cc(-c2cn[nH]c2)ccc1OC(F)(F)F
[3]
  IC50: > 500 µM
[1]
  IC50: 1.52 µM
[2]
  IC50: 1.23 µM

## COc1ccc(C(=O)OCCN(C(C)C)C(C)C)cc1NC(=O)Nc1cc(-c2cnn(C)c2)ccc1OC(F)(F)F
[3]
  IC50: > 500 µM
[1]
  IC50: > 500 µM
[2]
  IC50: > 500 µM

## COc1ccc(C(=O)OCCN2CCOCC2)cc1NC(=O)Nc1cc(-c2cccnc2)cc(C(F)(F)F)c1
[3]
  IC50: > 500 µM
[1]
  IC50: > 500 µM
[2]
  IC50: 11.1 µM

## COc1ccc(C(=O)OCCN2CCOCC2)cc1NC(=O)Nc1cc(-c2ccc3[nH]ccc3c2)cc(C(F)(F)F)c1
[3]
  IC50: > 500 µM
[1]
  IC50: 1.24 µM
[2]
  IC50: 1.77 µM

## COc1ccc(C(=O)OCCN2CCOCC2)cc1NC(=O)Nc1cc(-c2cncnc2)ccc1OC(F)(F)F
[1]
  IC50: 1.28 µM
[2]
  IC50: 10.8 µM

## COc1ccc(C(=O)OCCN2CCOCC2)cc1NC(=O)Nc1cc(-c2cn[nH]c2)ccc1OC(F)(F)F
[1]
  IC50: > 500 µM
[2]
  IC50: 2.55 µM

## Nc1n[nH]c2cccc(-c3cccc(NC(=O)Nc4ccccc4F)c3)c12
[1]
  IC50: 1.17 µM
[2]
  IC50: 2.36 µM

## Nc1n[nH]c2cccc(-c3cccc(NC(=O)Nc4cccc(F)c4)c3)c12
[1]
  IC50: 1.36 µM
[2]
  IC50: 1.24 µM

## Nc1n[nH]c2cccc(-c3cccc(NC(=O)Nc4ccc(F)cc4)c3)c12
[1]
  IC50: > 500 µM
[2]
  IC50: > 500 µM

## Nc1n[nH]c2cccc(-c3cccc(NC(=O)Nc4ccccc4Cl)c3)c12
[1]
  IC50: 15.8 µM
[2]
  IC50: > 500 µM

## Nc1n[nH]c2cccc(-c3cccc(NC(=O)Nc4cccc(Cl)c4)c3)c12
[1]
  IC50: 1.72 µM
[2]
  IC50: 1.83 µM

## Cc1ccc(NC(=O)Nc2cccc(-c3cccc4[nH]nc(N)c34)c2)cc1
[1]
  IC50: 1.66 µM
[2]
  IC50: 4.45 µM

## CC(C)c1cccc(NC(=O)Nc2cccc(-c3cccc4[nH]nc(N)c34)c2)c1
[1]
  IC50: 1.42 µM
[2]
  IC50: 0.28 µM

## Nc1n[nH]c2cccc(-c3cccc(NC(=O)Nc4cccc(C(F)(F)F)c4)c3)c12
[1]
  IC50: 1.95 µM
[2]
  IC50: 1.41 µM

## COc1cccc(NC(=O)Nc2cccc(-c3cccc4[nH]nc(N)c34)c2)c1
[1]
  IC50: 2.49 µM
[2]
  IC50: 2.86 µM

## Cc1cccc(C)c1NC(=O)Nc1cccc(-c2cccc3[nH]nc(N)c23)c1
[3]
  IC50: > 0.5 µM
[1]
  IC50: 229 µM
[2]
  IC50: > 500 µM

## Nc1n[nH]c2cccc(-c3cccc(NC(=O)Nc4ccc(F)c(F)c4)c3)c12
[3]
  IC50: > 0.5 µM
[1]
  IC50: 3.04 µM
[2]
  IC50: 5.88 µM

## Nc1n[nH]c2cccc(-c3cccc(NC(=O)Nc4ccc(Cl)cc4Cl)c3)c12
[1]
  IC50: > 500 µM
[2]
  IC50: 1.9 µM

## Nc1n[nH]c2cccc(-c3cccc(NC(=O)Nc4cc(C(F)(F)F)cc(C(F)(F)F)c4)c3)c12
[1]
  IC50: 1.51 µM
[2]
  IC50: 3.54 µM

## Cc1ccc(NC(=O)Nc2cccc(-c3cccc4[nH]nc(N)c34)c2)cc1Cl
[1]
  IC50: 1.75 µM
[2]
  IC50: 0.51 µM

## Nc1n[nH]c2cccc(-c3cccc(NC(=O)Nc4ccc(Cl)c(C(F)(F)F)c4)c3)c12
[1]
  IC50: 3.41 µM
[2]
  IC50: 1.15 µM

## Nc1n[nH]c2cccc(-c3cccc(NC(=O)Nc4nccs4)c3)c12
[3]
  IC50: > 0.5 µM
[1]
  IC50: > 500 µM
[2]
  IC50: 0.55 µM

## Nc1n[nH]c2cccc(-c3ccc(NC(=O)Nc4ccc5c(c4)OCO5)cc3)c12
[1]
  IC50: 5.23 µM
[2]
  IC50: 0.53 µM

## Cc1ccnc(NC(=O)Nc2ccc(-c3cccc4[nH]nc(N)c34)cc2)c1
[3]
  IC50: > 0.5 µM
[1]
  IC50: 1.16 µM
[2]
  IC50: 0.43 µM

## CN(C)CCOc1ccc(NC(=O)Nc2ccc(-c3cccc4[nH]nc(N)c34)cc2)cc1F
[1]
  IC50: > 500 µM
[2]
  IC50: 0.6 µM

## CNC(=O)c1cc(Oc2ccc(NC(=O)Nc3ccc(Cl)c(C(F)(F)F)c3)cc2)ccn1 [SORAFENIB]
[1]
  IC50: 1.45 µM
[2]
  IC50: 0.65 µM
